Among the test systems are OVCAR-5 ovarian; NCI/ADR-RES ovarian; LOX IMVI melanoma; UO-31 renal; TK-10 renal; MDA-MB-231 breast; HCC-2998 colon; SN12C renal; U251 CNS; NCI-H460 lung.
Common to all, as to experiment: NCI-60 cell line screen, 48 h

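48-hour exposure; five concentrations; linearly interpolated endpoints. TGI: concentration producing complete growth inhibition.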 Bounds are passed on as bounds.

The values that follow come from PubChem BioAssay (NCI).

With `CCN(CCCl)c1cc(CN(C)C)cc(NC(=O)c2ccc(C(=O)Nc3cccc(N(CCCl)NN)c3)cc2)c1`, the TGI with OVCAR-5 ovarian was 0.989 µM; with NCI/ADR-RES ovarian it was 12.7 µM; in the assay on LOX IMVI melanoma, 0.034 µM; in the assay on UO-31 renal it was 1.54 µM; in the assay on TK-10 renal, 0.618 µM; with MDA-MB-231 breast, 0.69 µM. Also, the TGI in the assay on HCC-2998 colon turned out to be 0.298 µM; in the assay with SN12C renal it was 1.16 µM.
Consider `CN(CC(=O)O)c1ncc2c(n1)-c1ccccc1CC2`, for which the TGI in the assay on U251 CNS, in the assay with OVCAR-5 ovarian, in the assay on NCI/ADR-RES ovarian, in the assay on LOX IMVI melanoma, in the assay with UO-31 renal and in the assay on TK-10 renal was more than 100 µM each time. Moreover, the TGI with MDA-MB-231 breast, in the assay on NCI-H460 lung and in the assay with SN12C renal was more than 100 µM throughout.
Turning to `Nc1c(-c2ccccc2)c2ccc([N+](=O)[O-])cc2c(=O)n1-c1cccc(C(=O)O)c1`, the TGI in the assay with U251 CNS, in the assay on OVCAR-5 ovarian, with NCI/ADR-RES ovarian, in the assay with LOX IMVI melanoma, in the assay with UO-31 renal and with TK-10 renal was more than 100 µM each time. In addition, the TGI in the assay on MDA-MB-231 breast, in the assay on HCC-2998 colon and in the assay with NCI-H460 lung was more than 100 µM throughout.
As to `Cc1c(C)c2c(c(N)c1C#N)C(=O)N(NC(=S)Nc1ccccc1)C2=O`, the TGI with U251 CNS, in the assay with OVCAR-5 ovarian, in the assay with NCI/ADR-RES ovarian, in the assay with UO-31 renal, with TK-10 renal and in the assay on MDA-MB-231 breast was more than 100 µM each time. Moreover, the TGI in the assay with HCC-2998 colon, in the assay with NCI-H460 lung and in the assay on SN12C renal was more than 100 µM throughout.
In the case of `CC(C)C(Nc1c2ccccc2[n+](C)c2ccccc12)C(=O)O` (stereo unspecified), the TGI in the assay with U251 CNS, in the assay on OVCAR-5 ovarian, with UO-31 renal, with TK-10 renal, in the assay on HCC-2998 colon and in the assay on NCI-H460 lung was more than 100 µM throughout. The compound also gave a TGI in the assay on SN12C renal of more than 100 µM.
On to `CC1(c2ccc(Cl)cc2)c2ccccc2C(=O)N1CCCN1C(=O)c2ccccc2C1=O` (stereo unspecified), for which the TGI with U251 CNS was more than 100 µM; in the assay with NCI/ADR-RES ovarian, 76.1 µM; in the assay on LOX IMVI melanoma, 47.5 µM; with UO-31 renal, more than 100 µM; in the assay on TK-10 renal, more than 100 µM; in the assay on MDA-MB-231 breast, more than 100 µM. In addition, the TGI in the assay with SN12C renal is more than 100 µM.
Regarding `CCCCCCCCCCCCCCCCOC[C@H](COC(c1ccccc1)(c1ccccc1)c1ccccc1)O[P+](=S)OC` (stereo partly specified), the TGI in the assay with U251 CNS, in the assay on OVCAR-5 ovarian, in the assay on NCI/ADR-RES ovarian, in the assay with LOX IMVI melanoma, in the assay on UO-31 renal and in the assay on TK-10 renal was more than 100 µM throughout. Moreover, the TGI in the assay with MDA-MB-231 breast, with NCI-H460 lung and in the assay with SN12C renal was more than 100 µM in each case.
Regarding `CN(Cc1ccccc1)C(=S)S`, the TGI with U251 CNS was more than 100 µM; in the assay on OVCAR-5 ovarian, more than 100 µM; in the assay with NCI/ADR-RES ovarian it was more than 100 µM; in the assay with LOX IMVI melanoma, more than 100 µM; in the assay with UO-31 renal, 77.8 µM; with MDA-MB-231 breast, more than 100 µM. For the same compound, the TGI in the assay with HCC-2998 colon, in the assay with NCI-H460 lung and with SN12C renal was more than 100 µM in each case.
Consider `O=C(O)C1C2OC(C(Br)C2Br)C1C(=O)O` (stereo unspecified), for which the TGI in the assay with U251 CNS, with OVCAR-5 ovarian, in the assay with NCI/ADR-RES ovarian, in the assay with LOX IMVI melanoma, in the assay on UO-31 renal and with TK-10 renal was more than 100 µM throughout. Also, the TGI in the assay with MDA-MB-231 breast, with NCI-H460 lung and with SN12C renal was more than 100 µM in each case.
With `Cc1cc(Br)c(O)c(-c2cscn2)c1`, the TGI in the assay with OVCAR-5 ovarian turned out to be 36.4 µM; in the assay on NCI/ADR-RES ovarian, 56.9 µM; in the assay on LOX IMVI melanoma it was 23.1 µM; with UO-31 renal, 25.4 µM; in the assay with TK-10 renal, 42 µM; in the assay on HCC-2998 colon, 36.2 µM. Moreover, the values for the TGI in the assay on NCI-H460 lung and with SN12C renal were 49.6 µM and 23.6 µM, respectively.
Take `CCCCCCCCCCCCCCCC[N+](C)(C)CCl`: the TGI was 3.04 µM in the assay on U251 CNS; 21.6 µM with OVCAR-5 ovarian; 49 µM in the assay on NCI/ADR-RES ovarian; 27.9 µM in the assay with UO-31 renal; 6.41 µM with TK-10 renal; 4.32 µM in the assay on MDA-MB-231 breast. Besides, the TGI with HCC-2998 colon was found to be 3.18 µM; in the assay on NCI-H460 lung, 4.74 µM; with SN12C renal, 12.8 µM.
With `Cn1c(COC(=O)NC2CCCCC2)c(COC(=O)NC2CCCCC2)c2ccc3ccccc3c21`, the TGI in the assay with U251 CNS is more than 100 µM; with OVCAR-5 ovarian it was more than 100 µM; in the assay on NCI/ADR-RES ovarian, 62 µM; in the assay with LOX IMVI melanoma it was more than 100 µM; in the assay with UO-31 renal it was more than 100 µM; in the assay with TK-10 renal it was more than 100 µM. Also, the values for the TGI with MDA-MB-231 breast and in the assay on NCI-H460 lung were more than 100 µM and 13.5 µM, respectively.
Consider `COc1cc(C2C3=C(NC(=O)C2C#N)c2ccc4ccccc4c2OCC3)cc(OC)c1OC` (stereo unspecified), for which the TGI with U251 CNS is 30.4 µM; in the assay on OVCAR-5 ovarian, 42.3 µM; in the assay on NCI/ADR-RES ovarian it was more than 100 µM; with UO-31 renal, 28.3 µM; with TK-10 renal it was more than 100 µM; in the assay on HCC-2998 colon it was 65.2 µM. Further, the figures for the TGI in the assay with NCI-H460 lung and in the assay with SN12C renal were more than 100 µM and 38.9 µM, respectively.
Regarding `O=C(CN1CCCC1)Nc1ccc2c(c1)C1Oc3ccccc3CC1CO2` (stereo unspecified), the TGI in the assay with U251 CNS is 56.5 µM; in the assay on OVCAR-5 ovarian it was 93.4 µM; in the assay on NCI/ADR-RES ovarian, more than 100 µM; with LOX IMVI melanoma, 44.5 µM; in the assay with UO-31 renal it was 84.4 µM; in the assay on TK-10 renal, more than 100 µM. Further, the TGI in the assay on MDA-MB-231 breast was 75.7 µM; in the assay with HCC-2998 colon it was 34.9 µM; in the assay on SN12C renal it was more than 100 µM.
On to `COc1cc(CNc2nc3c(NC(C)=O)cc(C(F)(F)F)cc3nc2-c2ccccc2)cc(OC)c1OC`, for which the TGI in the assay with OVCAR-5 ovarian, with LOX IMVI melanoma, with UO-31 renal, in the assay on TK-10 renal, in the assay on HCC-2998 colon and in the assay on SN12C renal was more than 100 µM each time.
In the case of `N#Cc1nc(-c2ccsc2)oc1N`, the TGI with U251 CNS, in the assay on OVCAR-5 ovarian, in the assay on LOX IMVI melanoma, in the assay on UO-31 renal, in the assay on TK-10 renal and in the assay on MDA-MB-231 breast was more than 100 µM in each case. In the assay on SN12C renal, this compound displayed a TGI of more than 100 µM.
